“Also recorded” adds a separate entry of the source. Starred links: 1 amine or outer side, 2 acyl side, 3 side chain; linkers in the order of their positions; H or OH if unused. Non-standard residues stand in square brackets, D forms with d. Residues, ends and D or L forms follow the SMILES beside them. *: point of attachment. hPhe = N[C@@H](CCc1ccccc1)C(=O)O; Morpholide = C1CN(*)CCO1; CO = O=C([*:1])[*:2]; CH2F = FC*
Assays:
cathepsin B = cathepsin B (Rattus norvegicus, UniProt P00787); assay: Cathepsin B activity in living CC531 colon cancer cells (CSLM, (Z-Arg)^2 -cresyl violet); format: cell-based
cathepsin B, sequence (P00787 80-333): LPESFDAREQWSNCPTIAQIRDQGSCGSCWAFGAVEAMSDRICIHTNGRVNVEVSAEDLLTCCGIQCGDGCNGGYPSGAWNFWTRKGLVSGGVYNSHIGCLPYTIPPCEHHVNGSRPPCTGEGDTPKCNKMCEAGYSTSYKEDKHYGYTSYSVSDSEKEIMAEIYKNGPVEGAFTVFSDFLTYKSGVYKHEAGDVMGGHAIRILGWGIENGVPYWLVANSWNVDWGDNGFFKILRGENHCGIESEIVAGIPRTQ
Experimental: An established rat colon carcinoma cell line, CC531, was used for all experiments. The parental cell line was obtained from a 1,2-dimethylhydrazine-induced moderately differentiated and weakly immunogenic colon adenocarcinoma in WAG-Rij rats (44). Cells were cultured in vitro at 37° C. as monolayers in Dulbecco's modification of Eagle's medium (ICN Biomedicals, Irvine, Ayrshire, UK) supplemented with 10% (w/v) fetal bovine serum, 2 mM glutamine, 100 IU penicillin/ml and 100 μg streptomycin/ml. Cells were washed in PBS and, after detachment by scraping and centrifugation (250 g, room temperature, 10 min), a single cell suspension at a final concentration of 1×10^6 cancer cells in 50 μl of PBS was obtained with a viability of at least 95% (45,46). Cell suspension were either used for cytochemical purposes or for in vivo administration to induce metastases in the liver.
Cathepsin B activity was detected in real-time in living CC531 cells and freshly prepared living rat hepatocytes after isolation by collagenase perfusion of livers of male mature rats after 24 h of starvation (47). At time point zero, cell preparations were diluted 20-fold in PBS containing either 10 μM (Z-Arg)^2 -cresyl violet (Enzyme Systems Products, Dublin, Calif.) as fluorogenic substrate for cathepsin B (48) or 10 μM substrate and 20 μM FMK (Protek, Dublin, Calif.), as selective cathepsin B inhibitor (40,41). The fluorogenic substrate is not fluorescent but after proteolytic cleavage, liberated cresyl violet is fluorescent. Synthesis of the substrate is described elsewhere in Ref. 48. The substrate was dissolved first in dimethyl formamide (final concentration in the incubation medium was 1% (v/v)). An aliquot of 100 μl of the cell suspensions was brought into a well formed by a stainless steel ring attached to a glass slide (49). Images of cells were captured in real-time with a Leica CSLM fitted to a Leica Fluovert inverted microscopic equipped with a PL APO oil-immersion objective (×63, NA 1.40). Excitation was performed at a wavelength of 560 nm and fluorescence was captured at greater than 580 nm. Excitation with the use of green light is harmless to living cells. The pinhole aperture was set at 100 giving an optimized image (50). With fixed pinhole, filter combination and a laser power setting adjusted to give minimal fading, the photomultiplier gain and photometric offset were optimized. Cells were subjected to optical serial sectioning after each 60 s of incubation up to 300 s. Images in the X-Y plane were recorded with intervals of 0.5 μm in the Z direction. For analysis, each optical section was averaged eight times. Images were recorded in a 512×512 pixel format. The size of each pixel represented 0.015 μm^2 in the object. […]

[1] = Body weight and liver weight of FMK-treated rats; format: in vivo, rat; details: 20 mg FMK/kg daily oral 14 days
Experimental: Sixteen rats were treated orally with 20 mg FMK per kg body weight dissolved in PBS and 5% dimethylformamide daily for 14 days starting one week before administration of the CC531 cells and continuing until sacrifice. Oral administration was performed directly into the stomach with a plastic tube attached to a syringe. Dosage and type of treatment were selected on the basis of previous experiments in which rats were treated with FMK-related inhibitors of cathepsins (34,40,53). The other 16 animals were treated similarly with PBS and dimethylformamide only. The LD50 of this type of FMK is at least 20-fold higher than the dosages used in the present experiment (40,53).
Seven days after administration of CC531 cells, the animals were weighed and sacrificed with an overdose of sodium pentobarbital. Livers were removed immediately, the individual lobes were weighed and dissected and cut into small pieces (up to 5 mm thick) according to a rigid dissection scheme. The left lateral lobe was cut into eight pieces, the median lobe into nine pieces, the right lateral and caudate lobes into four pieces. […]
Significant differences between the caudate lobe and the other liver lobes with respect to the endothelial compartment or distribution patterns of extracellular matrix compounds (see Table 1 for specification of parameters investigated) could not be detected either.

[2] = cited from earlier work

For `O=C(CF)[C@H](CCc1ccccc1)NC(=O)[C@H](Cc1ccccc1)NC(=O)N1CCOCC1` [FMK, Mu-Phe-homoPhe-fluoro-methylketone] ({Morpholide-CO}-Phe-[hPhe]-CH2F), the “inhibition of intracellular cathepsin B activity” value (cathepsin B; CC531 cells, 20 μM FMK) was “not intracellular cathepsin B activity; also recorded: Activity was present intracellularly”, the “inhibition of plasma membrane-bound (extracellular) cathepsin B activity” value (cathepsin B; CC531 cells, 20 μM FMK, 10 μM (Z-Arg)^2 -cresyl violet, 5 min, room temperature) was “inhibited only extracellular; also recorded: inhibited the plasma membrane-bound activity completely; also recorded: Plasma membrane-bound activity was inhibited” and the “uptake by living cells” value (cathepsin B; inferred from lack of inhibition of intracellular activity) was “had not been taken up by the living cells”. The “effect on body weight, total liver weight or weight of individual lobes” value [1] was “did not affect body weight, total liver weight or the weight of the individual lobes”, the toxicity [2] was “non-toxic” and the “LD50 relative to the dosages used (20 mg/kg)” value ([2]; this type of FMK) was “at least 20 fold”.
